Where only a bound is given, the exact number is not on record here.

Assay [1] has as its system Ba/F3 EGFR L858R/T790M/C797S. Briefly: CellTiter-Glo cell viability, Ba/F3 EGFR L858R/T790M/C797S. The format is cell-based. Particulars: 72 hours. The protocol: (§1) An experiment to measure the activity of the compounds of the present invention against the mutant Ba/F3 EGFR cell line was performed as follows using the CellTiter-Glo system sold by Promega. The CellTiter-Glo assay is a method to confirm the cell viability by measuring ATP present in cells in cell culture. The Ba/F3 EGFR L858R, Ba/F3 EGFR L858R/T790M, Ba/F3 EGFR L858R/T790M/C797S mutant cell line was used. The Ba/F3 EGFR L858R, Ba/F3 EGFR L858R/T790M, and Ba/F3 EGFR L858R/T790M/C797S mutant cell lines was cultured in RPMI containing 10% FBS and 1% penicillin-streptomycin with 1 μg of puromycin in an incubator at 37° C. and 5% CO2.
(§2) Analysis of the inhibitory ability effect of the compounds against EGFR was conducted according to the following analysis reaction recipe.
(§3) 2500 cells/90 μl were passaged and cultured in a 96-well cell culture plate, and after 24 hours, treated with the compound represented by Formula 1 at a concentration of 0, 0.01, 0.03, 0.1, 0.3, 1, 3, and 10 (μM). After reaction for 72 hours, the plate treated with the compound was left at room temperature for 30 minutes, then further treated with 100 μl of reagent, and shaken at room temperature for 10 minutes. Finally, the ratio of fluorescence values at 570 nm was obtained using the equipment to quantitatively measure and confirmed the inhibitory ability of the compounds. The measurement values measured at eight compound concentrations were analyzed using the Prism program (version 5.01, Graphpad Software, Inc.), and the IC50 value, which is an indicator of the inhibitory ability of the compound, was calculated.

The target in a further assay is EGFR del19/T790M/C797S (Homo sapiens (Human), UniProt P00533, C797S/DEL746-750/T790M). Briefly: HTRF enzyme assay, EGFR del19/T790M/C797S mutant enzyme. Particulars: enzyme from SignalChem, 37° C. 2 hours. In kind it is biochemical. As for the experimental part:
An experiment to measure the activity of the compounds of the present invention against EGFR mutant enzymes was performed as follows using the HTRF system sold by Cisbio. For the EGFR del19/T790M mutant enzyme, a recombinant protein provided by Carna Biosciences was purchased and used, and for the EGFR del19/T790M/C797S mutant enzyme, a protein provided by SignalChem was purchased and used as an enzyme source.
(§4) The composition of the assay buffer used for measuring the activity was 50 mM Tris-HCl pH 7.5, 100 mM NaCl, 7.5 mM MgCl2, 3 mM KCl, 0.01% Tween 20, 0.1% BSA, and 1 mM DTT. Here, an enzyme reaction was performed using ATP at a concentration of […] and a peptide substrate labeled with biotin at a concentration of […]. Analysis of the inhibitory effect of the compounds against the EGFR activity was conducted according to the following analysis reaction recipe. • Component 1: 4 μL of an EGFR mutant enzyme • Component 2: 2 μL of a compound solution • Component 3: 4 μL of ATP and a peptide labeled with biotin
(§5) The enzyme reaction was started by first mixing Component 1 and Component 2 and then adding Component 3. After reaction at 37° C. for 2 hours, […] of measurement solution consisting of streptavidin-XL665 and europium-labeled anti-phosphotyrosine antibody provided by Cisbio was added to the enzyme reaction solution and reacted at room temperature for 1 hour. Finally, the ratio of fluorescence values at 615 nm and 665 nm was obtained using the Envision equipment from Perkin-Elmer to quantitatively measure the enzyme activity and confirmed the inhibitory ability of the compounds. The measurement values measured at seven compound concentrations were analyzed using the Prism program (version 5.01, Graphpad Software, Inc.), and the IC50 value, which is an indicator of the inhibitory ability of the compound, was calculated.

In the next assay the test system is Ba/F3 EGFR L858R/T790M. Briefly: CellTiter-Glo cell viability, Ba/F3 EGFR L858R/T790M. As to conditions: 72 hours. In kind it is cell-based. As for the experimental part: as §1, §2, §3
The target of the next assay is EGFR A763_Y764insFHEA (Homo sapiens (Human), UniProt P00533, INS763FHEA). Kind of assay: HTRF enzyme assay, EGFR Ex20 insertion mutant enzyme. In kind it is biochemical. As to conditions: recombinant enzyme, 37° C. 2 hours. The protocol:
An experiment to measure the activity of the compounds of the present invention against EGFR mutant enzymes was performed as follows using the HTRF system sold by Cisbio. For the EGFR mutant enzyme, EGFR A763_Y764insFHEA enzyme, a recombinant protein provided by SignalChem was purchased and used.
as §4, §5

A further assay deals with Ba/F3 EGFR del19. Briefly: CellTiter-Glo cell viability, Ba/F3 EGFR del19. The format is cell-based. As to conditions: 72 hours. As for the experimental part: An experiment to measure the activity of the compounds of the present invention against the mutant Ba/F3 EGFR cell line was performed as follows using the CellTiter-Glo system sold by Promega. The CellTiter-Glo assay is a method to confirm the cell viability by measuring ATP present in cells in cell culture. For the Ba/F3 EGFR del19, Ba/F3 EGFR del19/T790M, Ba/F3 del19/T790M/C797S mutant cell line, a cell line provided by Crown Bioscience was purchased and used. The Ba/F3 EGFR del19, Ba/F3 EGFR del19/T790M, Ba/F3 del19/T790M/C797S mutant cell line was cultured in RPMI containing 10% FBS and 1% penicillin-streptomycin with 1 μg of puromycin in an incubator at 37° C. and 5% CO2.
as §2
as §3, with “cells/90 μL” for “cells/90 μl”

A further assay deals with Ba/F3 EGFR L858R. Kind of assay: CellTiter-Glo cell viability, Ba/F3 EGFR L858R. As to conditions: 72 hours. The format is cell-based. The protocol:
as §1, §2, §3

Chain of EGFR A763_Y764insFHEA (P00533 other isoform, or with tags, fused parts or gaps del 1-694/ins FHEA behind 763 limits assumed): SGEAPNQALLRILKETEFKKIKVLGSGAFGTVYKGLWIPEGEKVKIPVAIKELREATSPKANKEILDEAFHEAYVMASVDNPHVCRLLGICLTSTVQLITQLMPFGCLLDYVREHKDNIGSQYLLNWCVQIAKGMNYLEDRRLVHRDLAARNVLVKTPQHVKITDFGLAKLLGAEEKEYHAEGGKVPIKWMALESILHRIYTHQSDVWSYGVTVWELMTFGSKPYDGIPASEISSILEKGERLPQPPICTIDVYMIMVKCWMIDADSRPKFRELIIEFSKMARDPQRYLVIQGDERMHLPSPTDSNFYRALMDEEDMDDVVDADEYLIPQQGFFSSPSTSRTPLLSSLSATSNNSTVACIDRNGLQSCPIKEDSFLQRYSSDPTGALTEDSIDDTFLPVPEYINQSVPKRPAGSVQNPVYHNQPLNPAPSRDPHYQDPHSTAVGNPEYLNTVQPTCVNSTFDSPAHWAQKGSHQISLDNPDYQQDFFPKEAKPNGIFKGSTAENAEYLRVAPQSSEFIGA
Chain of EGFR del19/T790M/C797S (P00533 other isoform, or with tags, fused parts or gaps T790M/C797S/del 1-694/del 746-750 limits assumed): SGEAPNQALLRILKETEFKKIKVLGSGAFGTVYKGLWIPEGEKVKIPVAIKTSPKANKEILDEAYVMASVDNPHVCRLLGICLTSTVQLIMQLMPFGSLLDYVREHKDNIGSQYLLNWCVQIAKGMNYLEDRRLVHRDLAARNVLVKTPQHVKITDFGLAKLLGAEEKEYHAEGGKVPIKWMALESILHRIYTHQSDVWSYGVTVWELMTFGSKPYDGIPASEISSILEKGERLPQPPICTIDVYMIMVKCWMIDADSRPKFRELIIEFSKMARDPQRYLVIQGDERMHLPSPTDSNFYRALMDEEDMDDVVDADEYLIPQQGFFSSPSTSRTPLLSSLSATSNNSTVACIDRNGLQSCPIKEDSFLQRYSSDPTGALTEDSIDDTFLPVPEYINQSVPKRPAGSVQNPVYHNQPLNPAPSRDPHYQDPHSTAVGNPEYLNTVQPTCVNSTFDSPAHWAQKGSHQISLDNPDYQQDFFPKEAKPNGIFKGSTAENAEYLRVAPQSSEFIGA

For `COc1cc(N2CCC(N3CCN(C)CC3)CC2)ccc1Nc1ncc(Cl)c(Nc2cccc3c2N(S(C)(=O)=O)CC3)n1` [Example 2, 5-chloro-N2-(2-methoxy-4-(4-(4-methylpiperazin-1-yl)piperidin-1-yl)phenyl)-N4-(1-(methylsulfonyl)indolin-7-yl)pyrimidine-2,4-diamine], the half-inhibitory concentration (IC50) was less than 100 nM in assay [1]; less than 1 nM against EGFR del19/T790M/C797S; less than 30 nM in the assay with Ba/F3 EGFR L858R/T790M; 1.7 nM on EGFR A763_Y764insFHEA; less than 30 nM with Ba/F3 EGFR del19; less than 30 nM in the assay on Ba/F3 EGFR L858R.

As to `COc1cc(N2CCC(N3CCN(C)CC3)CC2)ccc1Nc1ncc(Cl)c(Nc2cccc3c2N(S(C)(=O)=O)CCC3)n1` [Example 5, 5-chloro-N2-(2-methoxy-4-(4-(4-methylpiperazin-1-yl)piperidin-1-yl)phenyl)-N4-(1-(methylsulfonyl)-1,2,3,4-tetrahydroquinolin-8-yl)pyrimidine-2,4-diamine], the IC50 against EGFR del19/T790M/C797S was less than 1 nM; in the assay on Ba/F3 EGFR L858R/T790M, less than 30 nM; at EGFR A763_Y764insFHEA, 11 nM; with Ba/F3 EGFR del19, less than 30 nM; in the assay on Ba/F3 EGFR L858R it was less than 30 nM.
